Legend:
Assay in all cases: relative viability (nuclei count vs DMSO), 5 days (fraction); higher = more cells survive
[1] = compound: CN(C/C=C/C1=CC=C(C=C1)Cl)CC2=CC=CC=C2N(CCO)S(=O)(=O)C3=CC=C(C=C3)OC [KN-93] + O=C(CCCCCCC(=O)Nc1ccccc1)NO [Vorinostat] (partner 1 µM)
Summary of the method: (§1)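 The day after seeding in 1536-well plates, lung cancer cell lines were treated by pin tool with a single drug, or with a fixed anchor-drug dose together with five library-drug doses (not always all listed) in √10 steps. After 5 days, a combined fix-and-stain solution (final 0.05% Triton X-100, 1% formaldehyde, 1 ug/ml Hoechst) was added. Nuclei counted on 4× images gave relative viability as treated counts over vehicle counts, reported as the median of duplicate plates.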

[2] = compound: CN(C/C=C/C1=CC=C(C=C1)Cl)CC2=CC=CC=C2N(CCO)S(=O)(=O)C3=CC=C(C=C3)OC [KN-93] + Cc1nc(NC(=O)N2CCC[C@H]2C(N)=O)sc1-c1ccnc(C(C)(C)C(F)(F)F)c1 [Alpelisib] (partner 2 µM)
Summary of the method: as §1

[3] = compound: CN(C/C=C/C1=CC=C(C=C1)Cl)CC2=CC=CC=C2N(CCO)S(=O)(=O)C3=CC=C(C=C3)OC [KN-93] + Nc1ncn([C@H]2C[C@H](O)[C@@H](CO)O2)c(=O)n1 [Decitabine] (partner 2 µM)
Summary of the method: as §1

[4] = compound: CN(C/C=C/C1=CC=C(C=C1)Cl)CC2=CC=CC=C2N(CCO)S(=O)(=O)C3=CC=C(C=C3)OC [KN-93] + O=C(c1cc(Cc2n[nH]c(=O)c3ccccc23)ccc1F)N1CCN(C(=O)C2CC2)CC1 [Olaparib] (partner 8 µM)
Summary of the method: as §1

[5] = compound: CN(C/C=C/C1=CC=C(C=C1)Cl)CC2=CC=CC=C2N(CCO)S(=O)(=O)C3=CC=C(C=C3)OC [KN-93] + Nc1nc2[nH]cc(CCc3ccc(C(=O)N[C@@H](CCC(=O)O)C(=O)O)cc3)c2c(=O)[nH]1 [Pemetrexed] (partner 0.2 µM)
Summary of the method: as §1

| Cell Line | relative viability ([1]; first compound 0.08 µM) | relative viability ([1]; first compound 0.253 µM) | relative viability ([1]; first compound 2.53 µM) | relative viability ([1]; first compound 8 µM) | relative viability ([2]; first compound 0.08 µM) | relative viability ([2]; first compound 0.253 µM) | relative viability ([2]; first compound 2.53 µM) | relative viability ([2]; first compound 8 µM) | relative viability ([3]; first compound 0.08 µM) | relative viability ([3]; first compound 0.253 µM) | relative viability ([3]; first compound 2.53 µM) | relative viability ([3]; first compound 8 µM) | relative viability ([4]; first compound 0.08 µM) | relative viability ([4]; first compound 0.253 µM) | relative viability ([4]; first compound 2.53 µM) | relative viability ([4]; first compound 8 µM) | relative viability ([5]; first compound 0.08 µM) | relative viability ([5]; first compound 0.253 µM) | relative viability ([5]; first compound 2.53 µM) | relative viability ([5]; first compound 8 µM) |
| --- | --- | --- | --- | --- | --- | --- | --- | --- | --- | --- | --- | --- | --- | --- | --- | --- | --- | --- | --- | --- |
| NCI-H1755 | 0.844 | 0.835 | 0.856 | 0.511 | 0.718 | 1.13 | 1.2 | 0.819 | 0.752 | 0.723 | 0.696 | 0.703 | 0.806 | 0.804 | 0.909 | 0.827 | 0.455 | 0.432 | 0.453 | 0.44 |
| LK-2 | 0.241 | 0.279 | 0.426 | 0.19 | 0.905 | 1.51 | 1.32 | 0.673 | 0.276 | 0.293 | 0.315 | 0.278 | 0.79 | 0.643 | 0.89 | 0.582 | 0.275 | 0.273 | 0.288 | 0.2 |
| EKVX | 0.642 | 0.653 | 0.655 | 0.585 | 0.728 | 0.845 | 1.02 | 0.692 | 0.332 | 0.289 | 0.342 | 0.319 | 0.761 | 0.558 | 0.802 | 0.669 | 0.382 | 0.346 | 0.454 | 0.244 |
| HCC-44 | 1.13 | 1.1 | 1.12 | 0.915 | 0.775 | 0.746 | 0.99 | 0.549 | 1.05 | 0.929 | 1.03 | 0.915 | 0.935 | 0.959 | 0.994 | 0.88 | 0.652 | 0.615 | 0.667 | 0.678 |
| HCC-78 | 0.465 | 0.405 | 0.739 | 0.381 | 0.385 | 0.276 | 0.393 | 0.212 | 0.724 | 0.676 | 0.709 | 0.747 | 0.725 | 0.976 | 0.807 | 0.726 | 0.816 | 1.02 | 0.911 | 0.935 |
| PC-3 [JPC-3] | 0.794 | 0.765 | 0.756 | 0.637 | 0.999 | 1.04 | 1.01 | 0.94 | 0.786 | 0.781 | 0.919 | 0.739 | 0.929 | 1.06 | 1.23 | 0.956 | 1.15 | 1.37 | 0.898 | 0.858 |
| NCI-H322M | 0.917 | 0.836 | 0.826 | 0.782 | 0.873 | 1.06 | 0.836 | 0.686 | 0.733 | 0.725 | 0.69 | 0.699 | 0.766 | 0.817 | 0.706 | 0.689 | 0.641 | 0.628 | 0.701 | 0.614 |
| NCI-H1355 | 0.685 | 0.516 | 0.739 | 0.578 | 0.731 | 0.719 | 0.946 | 0.697 | 0.367 | 0.298 | 0.317 | 0.315 | 0.628 | 0.67 | 0.766 | 0.477 | 1.11 | 0.918 | 1.27 | 0.972 |
| NCI-H2126 | 0.782 | 0.83 | 0.727 | 0.704 | 0.81 | 0.725 | 0.769 | 0.727 | 0.51 | 0.522 | 0.656 | 0.475 | 0.819 | 1.08 | 0.931 | 0.772 | 0.541 | 0.64 | 0.69 | 0.654 |
| RERF-LC-KJ | 0.785 | 0.643 | 0.696 | 0.577 | 0.682 | 0.754 | 0.766 | 0.634 | 0.627 | 0.753 | 0.722 | 0.346 | 0.938 | 0.97 | 0.836 | 0.545 | 0.504 | 0.485 | 0.46 | 0.461 |
| NCI-H1944 | 0.502 | 0.627 | 0.522 | 0.249 | 0.832 | 0.761 | 0.931 | 0.754 | 0.45 | 0.414 | 0.413 | 0.395 | 0.356 | 0.378 | 0.401 | 0.334 | 0.599 | 0.598 | 0.545 | 0.57 |
| COR-L23 | 0.448 | 0.46 | 0.509 | 0.402 | 0.743 | 1.01 | 0.745 | 0.601 | 0.459 | 0.409 | 0.495 | 0.35 | 0.298 | 0.338 | 0.357 | 0.327 | 0.196 | 0.205 | 0.204 | 0.2 |
| NCI-H2405 | 1.02 | 1.08 | 0.949 | 0.691 | 0.831 | 0.732 | 0.766 | 0.526 | 0.741 | 0.736 | 0.77 | 0.593 | 0.937 | 0.798 | 0.916 | 0.693 | 1.06 | 1.24 | 1.02 | 0.775 |
| SW 1573 | 0.685 | 0.916 | 0.746 | 0.569 | 0.87 | 0.805 | 0.933 | 0.632 | 0.494 | 0.615 | 0.466 | 0.212 | 0.456 | 0.589 | 0.523 | 0.22 | 1.07 | 0.916 | 0.981 | 0.307 |
| EPLC-272H | 0.436 | 0.212 | 0.274 | 0.152 | 0.947 | 1.02 | 1.04 | 0.792 | 0.372 | 0.368 | 0.383 | 0.309 | 0.466 | 0.681 | 0.913 | 0.267 | 0.422 | 0.274 | 0.285 | 0.211 |
| HCC-366 | 0.301 | 0.251 | 0.514 | 0.168 |  | 0.394 | 0.507 | 0.172 | 0.333 | 0.333 | 0.307 | 0.299 | 0.298 | 0.318 | 0.422 | 0.2 | 0.157 | 0.175 | 0.189 | 0.133 |
| NCI-H838 | 0.738 | 0.62 | 0.663 | 0.592 | 0.989 | 0.911 | 1.09 | 0.887 | 0.436 | 0.455 | 0.487 | 0.427 | 0.939 | 0.709 | 1.18 | 0.613 | 0.258 | 0.278 | 0.25 | 0.214 |
| LU99A | 0.282 | 0.48 | 0.535 | 0.343 | 0.525 | 0.636 | 0.557 | 0.39 | 0.777 | 0.893 | 0.859 | 0.711 | 0.257 | 0.271 | 0.244 | 0.264 | 0.183 | 0.183 | 0.189 | 0.222 |
| NCI-H2085 | 0.791 | 0.747 | 0.747 | 0.578 | 0.993 | 1.07 | 0.985 | 0.749 | 0.581 | 0.502 | 0.516 | 0.496 | 0.741 | 0.735 | 0.776 | 0.6 | 0.933 | 0.905 | 0.883 | 0.739 |
| HCC-15 | 0.773 | 0.877 | 0.932 | 0.738 | 0.816 | 1.09 | 0.884 | 0.744 | 0.546 | 0.62 | 0.707 | 0.309 | 0.658 | 0.731 | 0.719 | 0.522 | 0.218 | 0.209 | 0.21 | 0.215 |
| NCI-H661 | 0.703 | 0.923 | 0.641 | 0.535 | 0.578 | 0.597 | 0.796 | 0.161 | 0.539 | 0.527 | 0.543 | 0.378 | 0.577 | 0.951 | 0.64 | 0.4 | 0.89 | 1.15 | 0.753 | 0.504 |
| NCI-H1666 | 1.07 | 1.1 | 1.04 | 1.06 | 0.974 | 0.895 | 1.22 | 0.674 | 0.705 | 0.716 | 0.783 | 0.748 | 0.726 | 0.716 | 0.702 | 0.762 | 0.844 | 1 | 0.818 | 0.821 |
| EMC-BAC-2 | 0.51 | 0.534 | 0.399 | 0.345 | 0.683 | 0.732 | 0.928 | 0.676 | 0.996 | 0.98 | 0.969 | 0.693 | 0.498 | 0.441 | 0.507 | 0.431 | 0.452 | 0.484 | 0.497 | 0.437 |
| NCI-H1975 | 0.614 | 0.812 | 0.728 | 0.452 | 0.607 | 0.717 | 0.556 | 0.284 | 0.389 | 0.361 | 0.412 | 0.272 | 0.534 | 0.839 | 0.826 | 0.456 | 0.277 | 0.299 | 0.309 | 0.221 |
| NCI-H1395 | 0.844 | 0.721 | 0.559 | 0.432 | 1.16 | 1.1 | 1.05 | 0.506 | 0.713 | 0.739 | 0.745 | 0.615 | 0.452 | 0.48 | 0.424 | 0.419 | 0.972 | 0.926 | 0.86 | 0.489 |
| NCI-H1993 | 0.659 | 0.711 | 0.742 | 0.702 | 0.648 | 0.574 | 0.71 | 0.59 | 0.573 | 0.548 | 0.579 | 0.601 | 0.915 | 0.947 | 1.14 | 0.771 | 0.474 | 0.535 | 0.618 | 0.58 |
